How the values were obtained:
H929 cells = assay: Cell viability assay (H929 10 FBS); assay type: cell-based; details: Homo sapiens, NCI-H929, 24 hours, read-out: H929_10FBS IC50
How it was run: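 H929 cells, 4000/well, in RPMI 1640 with 10% FBS, sodium pyruvate, HEPES and glucose were exposed to compound 24 h at 37 °C. Viability read as luminescence after 30-60 min at RT with CellTiter-Glo or ATPlite 1 Step.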

MCL-1 = MCL-1 (Homo sapiens (Human), UniProt Q07820); assay: Cell free Mcl-1:Bim affinity assay (fluorescence polarization competition); assay type: binding; details: 15 nM MCL-1, 5 nM FITC-Bim, 1 hour at room temperature; class symbols; read-out: BIM_Ki
MCL-1, sequence (Q07820 whole entry): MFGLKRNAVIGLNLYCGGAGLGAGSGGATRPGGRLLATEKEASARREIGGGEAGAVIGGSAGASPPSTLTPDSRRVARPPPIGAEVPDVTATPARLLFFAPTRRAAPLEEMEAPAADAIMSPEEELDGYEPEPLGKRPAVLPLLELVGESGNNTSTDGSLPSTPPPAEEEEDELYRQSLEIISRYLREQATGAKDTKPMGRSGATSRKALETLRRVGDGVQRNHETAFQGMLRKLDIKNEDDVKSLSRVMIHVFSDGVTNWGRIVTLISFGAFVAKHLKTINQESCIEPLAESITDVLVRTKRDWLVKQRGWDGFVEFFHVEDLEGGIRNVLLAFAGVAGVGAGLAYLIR
How it was run: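 Compounds competed with FITC-labelled Bim peptide (5 nM) for MCL-1 (15 nM) in HEPES/NaCl buffer with 1% DMSO, 1 h at room temperature. Fluorescence polarization (535 nm emission) gave % inhibition versus DMSO and positive controls; IC50 from 10-point curves, converted to Ki by the Nikolovska-Coleska equation.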

SMILES | IC50 (H929 cells) | Ki (MCL-1)
CN(C(=O)O[C@H]1/C=C/CN(C)C2(CCC2)C(=O)NS(=O)(=O)c2ccc3c(c2)N(C[C@@H]2CC[C@H]21)C[C@@]1(CCCc2cc(Cl)ccc21)CO3)C1COC1 [Example 240, [(3R,6R,7S,8E,22S)-6′-Chloro-11-methyl-12,12-(1,3-propylene)-13,15,15-trioxo-spiro[20-oxa-15-thia-1,14-triazatetracyclo[14.7.2.03,6.019,24]pentacosa-8,16,18,24-tetraene-22,1′-tetralin]-7-yl] N-methyl-N-(oxetan-3-yl)carbamate] | < 500 nM | < 1 nM
CN(C(=O)O[C@H]1/C=C/CN(C)C2(CCC2)C(=O)NS(=O)(=O)c2ccc3c(c2)N(C[C@@H]2CC[C@H]21)C[C@@]1(CCCc2cc(Cl)ccc21)CO3)[C@H]1CCOC1 [Example 241, [(3R,6R,7S,8E,22S)-6′-Chloro-11-methyl-12,12-(1,3-propylene)-13,15,15-trioxo-spiro[20-oxa-15-thia-1,11,14-triazatetracyclo[14.7.2.03,6.019,24]pentacosa-8,16,18,24-tetraene-22,1′-tetralin]-7-yl] N-methyl-N-[(3S)-tetrahydrofuran-3-yl]carbamate] | < 500 nM | < 1 nM
CN(C(=O)O[C@H]1/C=C/CN(C)C2(CCC2)C(=O)NS(=O)(=O)c2ccc3c(c2)N(C[C@@H]2CC[C@H]21)C[C@@]1(CCCc2cc(Cl)ccc21)CO3)[C@@H]1CCOC1 [Example 242, [(3R,6R,7S,8E,22S)-6′-Chloro-11-methyl-12,12-(1,3-propylene)-13,15,15-trioxo-spiro[20-oxa-15-thia-1,11,14-triazatetracyclo[14.7.2.03,6.019,24]pentacosa-8,16,18,24-tetraene-22,1′-tetralin]-7-yl] N-methyl-N-[(3R)-tetrahydrofuran-3-yl]carbamate] | < 500 nM | < 1 nM
CN1C/C=C/[C@H](OC(=O)N[C@@H]2CCOC2)[C@@H]2CC[C@H]2CN2C[C@@]3(CCCc4cc(Cl)ccc43)COc3ccc(cc32)S(=O)(=O)NC(=O)C12CCC2 [Example 243, [(3R,6R,7S,8E,22S)-6′-Chloro-11-methyl-12,12-(1,3-propylene)-13,15,15-trioxo-spiro[20-oxa-15-thia-1,11,14-triazatetracyclo[14.7.2.03,6.019,24]pentacosa-8,16,18,24-tetraene-22,1′-tetralin]-7-yl] N-[(3R)-tetrahydrofuran-3-yl]carbamate] | < 500 nM | < 1 nM
CCOC1CN(C(=O)O[C@H]2/C=C/CN(C)C3(CCC3)C(=O)NS(=O)(=O)c3ccc4c(c3)N(C[C@@H]3CC[C@H]32)C[C@@]2(CCCc3cc(Cl)ccc32)CO4)C1 [Example 244, [(3R,6R,7S,8E,22S)-6′-Chloro-11-methyl-12,12-(1,3-propylene)-13,15,15-trioxo-spiro[20-oxa-15-thia-1,11,14-triazatetracyclo[14.7.2.03,6.019,24]pentacosa-8,16,18,24-tetraene-22,1′-tetralin]-7-yl] 3-ethoxyazetidine-1-carboxylate] | < 500 nM | < 1 nM
CC1(C)OC/C=C/[C@H](O)[C@@H]2CC[C@H]2CN2C[C@@]3(CCOc4cc(Cl)ccc43)COc3ccc(cc32)S(=O)(=O)NC1=O [Example 246, (3R,6R,7S,8E,22S)-7′-chloro-7-hydroxy-12,12-dimethyl-15,15-dioxo-spiro[11,20-dioxa-15-thia-1,14-diazatetracyclo[14.7.2.03,6.019,24]pentacosa-8,16,18,24-tetraene-22,4′-chromane]-13-one] | > 1000 nM | 1 to 100 nM
CN(C)C(=O)O[C@H]1/C=C/COC(C)(C)C(=O)NS(=O)(=O)c2ccc3c(c2)N(C[C@@H]2CC[C@H]21)C[C@@]1(CCOc2cc(Cl)ccc21)CO3 [Example 247, [(3R,6R,7S,8E,22S)-7′-Chloro-12,12-dimethyl-135,5-trioxo-spiro[11,20-dioxa-15-thia-1,14-diazatetracyclo[14.7.2.03,6.019,24]pentacosa-8,16,18,24-tetraene-22,4′-chromane]-7-yl] N,N-dimethylcarbamate] | < 500 nM | < 1 nM
CC1(C)OC/C=C/[C@H](O)[C@@H]2CC[C@H]2CN2C[C@]3(COc4ccc(cc42)S(=O)(=O)NC1=O)OCCc1cc(Cl)ccc13 [Example 249, (3R,6R,7S,8E,22R)-6′-Chloro-7-hydroxy-12,12-dimethyl-15,15-dioxo-spiro[11,20-dioxa-15-thia-1,14-diazatetracyclo[14.7.2.03,6.019,24]pentacosa-8,16,18,24-tetraene-22,1′-isochromane]-13-one] | > 1000 nM | 1 to 100 nM
CN(C)C(=O)O[C@H]1/C=C/COC(C)(C)C(=O)NS(=O)(=O)c2ccc3c(c2)N(C[C@@H]2CC[C@H]21)C[C@]1(CO3)OCCc2cc(Cl)ccc21 [Example 250, [(3R,6R,7S,8E,22R)-6′-Chloro-12,12-dimethyl-13,15,15-trioxo-spiro[11,20-dioxa-15-thia-1,14-diazatetracyclo[14.7.2.03,6.019,24]pentacosa-8,16,18,24-tetraene-22,1′-isochromane]-7-yl] N,N-dimethylcarbamate] | < 500 nM | < 1 nM
CCOC(=O)N(C)[C@@H]1/C=C/CN(C)C(C)(C)C(=O)NS(=O)(=O)c2ccc3c(c2)N(C[C@@H]2CC[C@H]21)C[C@@]1(CCCc2cc(Cl)ccc21)CO3 [Example 253, Ethyl N-methyl-N-[(3R,6R,7R,8E,22S)-6′-chloro-11,12,12-trimethyl-13,15,15-trioxo-spiro[20-oxa-15-thia-1,11,14-triazatetracyclo[14.7.2.03,6.019,24]pentacosa-8,16(25),17,19(24)-tetraene-22,1′-tetralin]-7-yl]carbamate] | > 1000 nM | 1 to 100 nM
COC(=O)N(C)[C@H]1/C=C/COC(C)(C)C(=O)NS(=O)(=O)c2ccc3c(c2)N(C[C@@H]2CC[C@H]21)C[C@@]1(CCCc2cc(Cl)ccc21)CO3 [Example 254, Methyl N-methyl-N-[(3R,6R,7S,8E,22S)-6′-chloro-12,12-dimethyl-13,15,15-trioxo-spiro[11,20-dioxa-15-thia-1,14-diazatetracyclo[14.7.2.03,6.019,24]pentacosa-8,16(25),17,19(24)-tetraene-22,1′-tetralin]-7-yl]carbamate] | > 1000 nM | 1 to 100 nM

Results, then the compound that gave them:

IC50 (H929 cells) | Ki (MCL-1) | SMILES
< 500 nM | < 1 nM | COC1CN(C(=O)O[C@H]2/C=C/CN(C)C3(CCC3)C(=O)NS(=O)(=O)c3ccc4c(c3)N(C[C@@H]3CC[C@H]32)C[C@@]2(CCCc3cc(Cl)ccc32)CO4)C1 [Example 238, [(3R,6R,7S,8E,22S)-6′-Chloro-11-methyl-12,12-(1,3-propylene)-13,15,15-trioxo-spiro[20-oxa-15-thia-1,11,14-triazatetracyclo[14.7.2.03,6.019,24]pentacosa-8,16,18,24-tetraene-22,1′-tetralin]-7-yl] 3-methoxyazetidine-1-carboxylate]
< 500 nM | < 1 nM | CN(C(=O)O[C@H]1/C=C/CN(C)C2(CCC2)C(=O)NS(=O)(=O)c2ccc3c(c2)N(C[C@@H]2CC[C@H]21)C[C@@]1(CCCc2cc(Cl)ccc21)CO3)C1CCOCC1 [Example 239, [(3R,6R,7S,8E,22S)-6′-Chloro-11-methyl-12,12-(1,3-propylene)-13,15,15-trioxo-spiro[20-oxa-15-thia-1,11,14-triazatetracyclo[14.7.2.03,6.019,24]pentacosa-8,16,18,24-tetraene-22,1′-tetralin]-7-yl] N-methyl-N-tetrahydropyran-4-yl-carbamate]
< 500 nM | < 1 nM | COC1CCN(C(=O)O[C@H]2/C=C/CN(C)C3(CCC3)C(=O)NS(=O)(=O)c3ccc4c(c3)N(C[C@@H]3CC[C@H]32)C[C@@]2(CCCc3cc(Cl)ccc32)CO4)CC1 [Example 245, [(3R,6R,7S,8E,22S)-6′-Chloro-11-methyl-12,12-(1,3-propylene)-13,15,15-trioxo-spiro[20-oxa-15-thia-1,11,14-triazatetracyclo[14.7.2.03,6.019,24]pentacosa-8,16,18,24-tetraene-22,1′-tetralin]-7-yl] 4-methoxypiperidine-1-carboxylate]
> 1000 nM | < 1 nM | CC1(C)OC/C=C/[C@H](OC(=O)N2CCOCC2)[C@@H]2CC[C@H]2CN2C[C@@]3(CCOc4cc(Cl)ccc43)COc3ccc(cc32)S(=O)(=O)NC1=O [Example 248, [(3R,6R,7S,8E,22S)-7′-Chloro-12,12-dimethyl-13,15,15-trioxo-spiro[11,20-dioxa-15-thia-1,14-diazatetracyclo[14.7.2.03,6.019,24]pentacosa-8,16,18,24-tetraene-22,4′-chromane]-7-yl]morpholine-4-carboxylate]
> 1000 nM | 1 to 100 nM | CC(=O)N(C)[C@H]1/C=C/COC(C)(C)C(=O)NS(=O)(=O)c2ccc3c(c2)N(C[C@@H]2CC[C@H]21)C[C@@]1(CCCc2cc(Cl)ccc21)CO3 [Example 255, N-Methyl-N-[(3R,6R,7S,8E,22S)-6′-chloro-12,12-dimethyl-13,15,15-trioxo-spiro[11,20-dioxa-15-thia-1,14-diazatetracyclo[14.7.2.03,6.019,24]pentacosa-8,16(25),17,19(24)-tetraene-22,1′-tetralin]-7-yl]acetamide]
> 1000 nM | 1 to 100 nM | CN([C@H]1/C=C/COC(C)(C)C(=O)NS(=O)(=O)c2ccc3c(c2)N(C[C@@H]2CC[C@H]21)C[C@@]1(CCCc2cc(Cl)ccc21)CO3)S(C)(=O)=O [Example 256, N-Methyl-N-[(3R,6R,7S,8E,22S)-6′-chloro-12,12-dimethyl-13,15,15-trioxo-spiro[11,20-dioxa-15-thia-1,14-diazatetracyclo[14.7.2.03,6.019,24]pentacosa-8,16(25),17,19(24)-tetraene-22,1′-tetralin]-7-yl]methanesulfonamide]

From patent US11130769B2 (Prelude Therapeutics Incorporated, priority 2018, dated 2021)
